Measured values reported in patent US20240270745A1, “ISOQUINOLINE ALKALOID COMPOUND, AND PREPARATION METHOD THEREFOR AND USE THEREOF” (SHANGHAI INSTITUTE OF MATERIA MEDICA, CHINESE ACADEMY OF …, priority 2021, published 2024).

Tests used:
[1] = system: TASK1/TASK3 (KCNK3/KCNK9); details: in neurons; read-out: half-effective dose for inhibition of TASK1/TASK3 channels; cited from earlier work
TRESK (KCNK18) = target: T1, TRESK (KCNK18) (Homo sapiens, UniProt Q7Z418); details: in neurons; read-out: half-effective dose for inhibition of TRESK channels; cited from earlier work
T1 sequence (Q7Z418 1-384): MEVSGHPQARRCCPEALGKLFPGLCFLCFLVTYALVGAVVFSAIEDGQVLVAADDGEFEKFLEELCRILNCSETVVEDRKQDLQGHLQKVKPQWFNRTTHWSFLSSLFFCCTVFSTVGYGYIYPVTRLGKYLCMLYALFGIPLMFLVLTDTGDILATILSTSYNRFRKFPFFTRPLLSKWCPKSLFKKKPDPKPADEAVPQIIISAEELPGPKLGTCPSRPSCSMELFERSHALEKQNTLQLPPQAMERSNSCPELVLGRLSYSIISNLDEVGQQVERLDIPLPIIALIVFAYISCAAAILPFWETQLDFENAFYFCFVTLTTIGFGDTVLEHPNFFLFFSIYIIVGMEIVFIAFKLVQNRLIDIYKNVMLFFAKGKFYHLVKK

Kv2.1 channel = target: T2, Kv2.1 channel (Homo sapiens, UniProt Q14721); experiment: Kv2.1 channel current, transiently expressed in CHO-K1 cells (patch clamp); assay type: cell-based; details: 10 μM, FIG. 5 A and B
T2 construct: expressed in transfected cells; host or cells: CHO-K1 cells (ATCC), transient co-transfection with EGFP plasmid at 9:1
T2 sequence (Q14721 1-858): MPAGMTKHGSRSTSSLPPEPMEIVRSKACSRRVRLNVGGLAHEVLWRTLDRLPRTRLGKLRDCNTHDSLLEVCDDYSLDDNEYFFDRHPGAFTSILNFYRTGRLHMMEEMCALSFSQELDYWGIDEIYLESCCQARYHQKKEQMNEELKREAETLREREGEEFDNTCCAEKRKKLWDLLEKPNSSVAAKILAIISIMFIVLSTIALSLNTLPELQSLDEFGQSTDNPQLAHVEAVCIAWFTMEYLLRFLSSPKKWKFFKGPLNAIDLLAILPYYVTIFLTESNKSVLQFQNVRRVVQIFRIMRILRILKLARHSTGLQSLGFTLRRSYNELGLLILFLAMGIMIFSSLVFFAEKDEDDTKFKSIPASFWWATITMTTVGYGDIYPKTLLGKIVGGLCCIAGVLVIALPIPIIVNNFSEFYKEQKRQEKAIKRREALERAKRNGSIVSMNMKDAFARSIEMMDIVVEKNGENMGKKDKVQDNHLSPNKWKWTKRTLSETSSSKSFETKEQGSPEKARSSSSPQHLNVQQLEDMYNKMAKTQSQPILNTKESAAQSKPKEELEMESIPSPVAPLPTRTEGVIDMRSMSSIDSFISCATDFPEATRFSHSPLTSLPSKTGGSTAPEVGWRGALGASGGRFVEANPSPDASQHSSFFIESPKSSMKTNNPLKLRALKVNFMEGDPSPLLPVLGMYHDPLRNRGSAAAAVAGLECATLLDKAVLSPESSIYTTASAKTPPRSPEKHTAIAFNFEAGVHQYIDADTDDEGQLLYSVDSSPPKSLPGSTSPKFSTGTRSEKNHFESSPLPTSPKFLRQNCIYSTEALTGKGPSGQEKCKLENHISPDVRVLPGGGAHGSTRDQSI
Description: (§1) First, TRESK plasmid (a kind gift from Professor Min LI of Johns Hopkins University) and Kv2.1 plasmid (a kind gift from Professor Min LI of Johns Hopkins University) were each co-transfected into CHO-K1 cells (ATCC) with green fluorescent protein EGFP plasmid (a kind gift from Professor Jia LI of SHANGHAI INSTITUTE OF MATERIA MEDICA, CHINESE ACADEMY OF SCIENCES) at a ratio of 9:1, and the cells with green fluorescence were selected under a fluorescence microscope to perform the experiments. The cells were clamped at −70 m V, first hyperpolarized to −130 mV, given a ramp depolarization stimulus to 20 mV, maintained for 100 ms, and then hyperpolarized to 0 mV to record the potassium channel current. 10 μM HJ-70 was administered by perfusion to test the drug efficacy thereof.

[2] = system: IA current in DRG neurons; experiment: Transient outward potassium current (IA) in DRG neurons; assay type: cell-based, C57BL/6 mouse; details: whole-cell patch clamp; IA = total minus IK; 3 μM and 10 μM in FIG. 2
Description: (§2) A 4- to 6-week old C57BL/6 mouse (Shanghai Slack Experimental Animal Co., Ltd.) was used for acute isolation of dorsal root ganglion neurons. First, the mouse was sacrificed by breaking the neck, and the surface skin was disinfected with 75% alcohol. The skin was cut from the neck to the buttocks, and the spine from the neck to the waist was cut, and placed in a pre-cooled phosphate buffer (PBS) (Hyclone Company) after excess muscles and blood clots were removed. The spine was cut longitudinally along the midline, and the white spinal cord and blood clots in the middle were removed by ophthalmic tweezers to expose the intervertebral foramen. The dorsal root ganglia were taken out by fine forceps, wherein the large ganglia at the waist should be stripped of their fibrous connections. Then the ganglia were cut into small pieces with microdissection scissors, added to 1 mL of a mixture of collagenase (1 mg/mL) and trypsin (0.25 mg/mL) (Sigma-Aldrich Company) for digestion for 15 min. […]
(§3) The data were processed through Clampfit 10.2, and imported into an Excel table for statistics, and then sorted and analyzed for their significant differences through GraphPad Prim5 software. […] All electrophysiological experiment data were expressed as mean±standard error (mean±S.E.M.).

[3] = system: sodium current in hippocampal neurons; experiment: Sodium current in hippocampal neurons; assay type: cell-based, SD rats; details: 10 μM; membrane potential clamped at −90 mV
Experimental: (§4) Whole-cell patch clamp recording was performed through a digital-to-analog converter, the Digidata 1440A (Axon CNS), and a patch clamp amplifier, the Axon patch 700B (Molecular Devices), and the borosilicate glass electrode used in the manual patch clamp experiment was pulled by a Sutter-P1000 electrode puller (Sutter) with a resistance about 3 MΩ. The bath solution was continuously perfused in speed of about 2 mL/min using a BPS perfusion system.
9 mg of protease (type XXIII, Sigma) was weighed in advance, 5 mg of bovine serum albumin (BSA, Shanghai Sangon) and 5 mg of trypsin inhibitor (Sigma-Aldrich) were weighed, and 3 mg/mL and 5 mg/mL enzyme and termination solutions were respectively prepared with a dissociation solution, and incubated at 32° C. water bath. 2 SD rats that were 1-7 days old (Shanghai Slack Experimental Animal Co., Ltd.) were decapitated and cut the cortex and skull to take out the complete brain, which was divided into two parts along the midline of the brain, and the hippocampus was located in the temporal lobe of the brain. The temporal lobe cortex was removed to expose the hippocampal gyrus for dissection. Then the hippocampus tissue was slightly moistened with the dissociation solution, and cut into thin slices transversely with a razor blade. […]

hippocampal neurons = experiment: Spontaneous firing of cultured hippocampal neurons (patch clamp); assay type: cell-based, SD rats; details: 10 μM, FIG. 1 A and B
Experimental: as §4
Enzyme and termination solutions with the same concentration were prepared with PBS. 90% DMEM/F12 supplemented with 10% FBS, neuron culture medium (2% B-27, 1% penicillin and streptomycin mixture, Neurobasal-A supplemented with 0.5 mM 1% GlutaMAX), and enzyme and termination solutions (all purchased from Gibco) were preheated in advance. The slides were coated in a 24-well plate in advance with 20 μg/mL polylysine. All operations were performed in a biological safety cabinet. 3 newly born SD rats that were 1-3 days old were taken out the hippocampus according to the above method. The hippocampus was cut into pieces with microdissecting scissors and digested for 8 minutes in the enzyme solution, which was slightly shaken every 2-3 minutes to make the digestion even. […] The suspension was counted on a cell counter, and adjusted to a final concentration of 10^5 cells/mL. […]

[4] = system: formaldehyde-induced inflammatory pain; experiment: Formalin-induced mouse inflammatory pain model; assay type: in vivo; details: mice, intraperitoneal injection 30 minutes before 1% formaldehyde; 60 minutes observation
Experimental: A 10% formaldehyde solution was diluted 10 times to prepare a 1% formaldehyde solution. 5% DMSO, 5% Tween-80 and 90% normal saline (a 0.9% NaCl solution) were used to prepare solutions of HJ-70 in 100 mg/kg and 30 mg/kg. Each mouse was administered at a dose of 0.2 mL/10 g at 30 minutes before the experiment, and then 20 μL of 1% formaldehyde solution was injected into the sole of the foot through a microsampling needle to create a formalin model. The number of licking of hind paws, flicking of hind paws, and paw lifting, and the time of paw licking and prolonged paw lifting were recorded within 60 minutes. Paw licking was scored as 3, paw flicking was scored as 2, and paw lifting was scored as 1. The pain behavior score and time were calculated to determine the analgesic activity of HJ-70.

TRESK channel = target: T3, TRESK channel (Homo sapiens, UniProt Q7Z418); experiment: TRESK channel current, transiently expressed in CHO-K1 cells (patch clamp); assay type: cell-based
T3 construct: expressed in transfected cells; host or cells: CHO-K1 cells (ATCC), transient co-transfection with EGFP plasmid at 9:1
T3 sequence (Q7Z418 1-384): T1 sequence (Q7Z418 1-384)
Description: as §1

[5] = system: dorsal root ganglion (DRG) neurons; experiment: Evoked action potential firing in dorsal root ganglion neurons (whole-cell patch clamp); assay type: cell-based, C57BL/6 mouse; details: 10 μM; 200 pA, 500 ms current stimulation; FIG. 1 C and D
Description: as §2, with “min. Then a DMEM/F12 culture medium (Gibco Company) supplemented with 10% fetal calf serum was added thereto to terminate the digestion and dilute the resultant. The cells were pipetted repeatedly, and large tissue blocks were filtered out with a […] cell filter. The remaining liquid was inoculated into a glass slide pre-coated with poly-lysine (Sigma-Aldrich), and cultured in an incubator at 5% CO2 and 37° C.” for “min.”

[6] = system: IK current of hippocampal neurons; experiment: Delayed inward rectifier potassium current (IK) in hippocampal neurons; assay type: cell-based, SD rats; details: 1, 3 and 10 μM, FIG. 3
Experimental: as §4
(§5) The cell were clamped at a holding voltage of −50 mV, hyperpolarized to −110 mV, and then directly depolarized to 40 mV after 600 ms to record the whole cell potassium current (ITotal). To record the delayed […] rectifier potassium current (IK), the cells were first depolarized to −50 mV, maintained for 50 ms, and then depolarized to 40 mV. 10 μM HJ-70 was administered by perfusion to detect drug efficacy, and 5 mM TEA was administered as a positive control. […]
as §3

[7] = system: IA current of hippocampal neurons; experiment: Transient outward potassium current (IA) in hippocampal neurons; assay type: cell-based, SD rats; details: 1, 3 and 10 μM, FIG. 3
Experimental: as §4
as §5, with “mV.” for “mV. 10 μM HJ-70 was administered by perfusion to detect drug efficacy, and 5 mM TEA was administered as a positive control.”
as §3

[8] = system: IK current in DRG neurons; experiment: Delayed inward rectifier potassium current (IK) in DRG neurons; assay type: cell-based, C57BL/6 mouse
Description: as §2, §3

inhibition of Kv2.1 channel-mediated currents (Kv2.1 channel) | inhibition of TRESK channel current (TRESK channel; 10 μM, CHO-K1 cells, FIG. 5 C and D) | inhibitory activity on TRESK (K2P) compared with hydroxy-α-sanshool (TRESK channel; comparison with reported half-effective dose of hydroxy-α-sanshool) | SMILES | IC50 [1] [µM] | IC50 (TRESK (KCNK18)) [µM] | effect on IA current in DRG neurons [2] | effect on sodium current in hippocampal neurons [3] | effect on spontaneous firing of cultured hippocampal neurons (hippocampal neurons) | pain behavioral response induced by plantar injection of formalin (licking time, pain score) [4] | effect on evoked action potential firing frequency of DRG [5] | inhibition of IK current of hippocampal neurons [6] | effect on IA current of hippocampal neurons [7] | reversibility of IK current inhibition after washout ([8]; DRG neurons, washout, FIG. 2 G) | inhibition of IK current in DRG neurons ([8]; whole-cell patch clamp, 3 μM and 10 μM in FIG. 2)
– | – | – | C/C=C/C=C/C=C\CC/C=C/C(=O)NCC(C)(C)O [hydroxy-α-sanshool] | ~50 | ~50 | – | – | – | – | – | – | – | – | –
completely inhibited | almost completely inhibited | stronger than that of hydroxy-α-sanshool | O=c1c2ccccc2nc2n1CCc1c-2n(CCCO)c2ccccc12 [HJ-70, N-13-n-propanol rutaecarpine] | – | – | no significant effect | no effect | significantly inhibit | dose-dependently alleviate | significantly inhibited | reversibly and dose-dependently inhibited | without affecting | completely eluted | dose-dependently inhibited
